Assay results published in PMC6803640, “Oligomeric state, hydrodynamic properties and target recognition of human Calcium and Integrin Binding protein 2 (CIB2)” (Scientific Reports, 2019).
Values joined by “and” are separate entries in the source; they are usually repeats but may differ in a detail not shown here. Equal values may be shown once. Read-outs that look alike come from different tables or passages of the source. Where a SMILES comes first, the peptide text is derived from it.

T1: human CIB2 (Homo sapiens, UniProt O75838)
T1 construct: made in house
T1 sequence (O75838 1-187): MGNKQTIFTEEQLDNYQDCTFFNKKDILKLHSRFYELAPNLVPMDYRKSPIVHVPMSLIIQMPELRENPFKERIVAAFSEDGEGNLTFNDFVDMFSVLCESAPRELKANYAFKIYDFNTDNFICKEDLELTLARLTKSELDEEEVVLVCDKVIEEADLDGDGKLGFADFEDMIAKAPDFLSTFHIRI

B1: CIB2: Recombinant human CIB2, Ca^2+ and Mg^2+-binding protein (protein)
chain: T1 sequence (O75838 1-187)
modifications: left off: His tag, end not stated, cleaved

Assays:
human CIB2 = molecular target: T1, human CIB2; assay: SPR interaction of α7B peptides with immobilized CIB2; type: binding; settings: for ka2 association rate constant, CIB2-α7B_M-CIB2 complex / koff / Kd: His-CIB2; for ka2 association rate constant, CIB2-α7B_M-CIB2 complex / kon / koff: average ± SEM; for kon: His-CIB2 on His-cap chip, peptide 230 nM–30 μM, read-out: ka1 association rate constant, CIB2-α7B_M complex; for Kd: ratio kd1/ka1, read-out: KD^app1 apparent affinity for the first binding event
Excerpt: SPR was also used to study quantitatively the interaction of CIB2 with one of its established targets, namely the cytoplasmic domain of integrin α7B[3],[7]. Three different peptides were used in the interaction experiments. A peptide corresponding to the membrane proximal segment of the cytoplasmic domain of α7B integrin (α7B_M), another peptide with the same amino acid content, but randomized sequence (α7B_Scrb) and a peptide covering the C-terminal region of the cytoplasmic domain of α7B integrin (α7B_C). Three different approaches were used. In a first approach, His-tagged CIB2 was initially coupled to the surface of a His-cap sensor chip (see Methods), thus ensuring homogeneous site-specific orientation, and then blocked via standard amine coupling. […] The minor differences in the spectra at the level of the phenylalanine band can be ascribed to the TEV-protease recognition site (ENLYFQ), uncleaved in the His-tagged protein. […] In a third approach, we used the same low levels of CIB2 immobilization via amine coupling described in the experiments to probe CIB2 dimerization (100–200 RU) and flowed the three peptides.
The second approach (direct peptide immobilization) led to very low signals and unreproducible results and was not pursued any further. […] In spite of such differences, which might reflect both the heterogeneity of the surface and the different chemistry of immobilization, interaction results were consistent with one another. […] It should be noted that both Huang et al.[7] and Häger et al.[3] used peptides from mouse integrin, while we used the corresponding human sequences, which in the case of α7B_C lacks the tryptophan residue present in the mouse sequence. It is not uncommon that fluorescence spectroscopy interaction studies based on the peptide intrinsic fluorescence (CIB2 has no tryptophan residue) reveal some non-specific binding, especially when a highly hydrophobic protein such as CIB2 is the ligand. […] It cannot be excluded that a similar phenomenon occurred for murine α7B_C in the work by Häger et al.[3]. Our present results, based on accurate, label-free interaction studies clearly identify the region covered by α7B_M as the preferential binding site of CIB2 with α7B integrin.
SPR titrations of α7B_M over homogeneously coupled CIB2 (approach 1) gave very reproducible results and were performed both in the presence of 1 mM Mg^2+ and in the co-presence of 1 mM Mg^2+ and 2 mM Ca^2+. Peptide concentration was varied in the 230 nM–30 μM range. As anticipated, sensorgrams could not fit to a 1:1 binding model, and the kinetic model that better fit the data was a bivalent analyte model (see Methods), in which one α7B_M peptide could bind to two CIB2 molecules. According to this scheme, binding of the peptide to the first CIB2 molecule would direct the binding to the second one, thus resulting in two sets of kinetic constants.
Details of the protein and peptide immobilization procedures and experimental settings are elucidated in the Supplementary Information.
Kinetic data were fitted according to a bivalent analyte model, were a CIB2 monomer (L) can bind an α7B_M peptide (A), and the resulting complex (AL) can bind to a second CIB2 molecule (AL2), with all processes being possibly reversible, as follows: A+L→ka1ALAL→kd1A+LAL+L→ka2AL2AL2→kd2AL+L […]

Dynamic light scattering = type: physicochemical; settings: 37 °C, fractions eluted from SEC (CIB2 A2 band), mean ± SEM; n = 15 (CIB2), 18 (Rec), 30 (CaM); 1.8 µM CIB2, 11 µM Rec, 7.4 µM CaM
Description: DLS measurements were performed using Zetasizer Nano-S (Malvern Instruments) at 37 °C by setting the same parameters for hydrodynamic diameter estimation as in ref.[26]. The estimation was based on 15–30 measurements, each consisting of at least 13 repetitions; data in Table 1 are reported as mean ± standard error of mean (SEM). DLS samples for each protein are the same collected in the Analytical Size Exclusion Chromatography.
His-tagged proteins, and then blocked via amine coupling as explained above. Preparation of the […]
approximately 2250 RU of CIB2 immobilized. In binding experiments, peptide concentration was varied in the 230 nM- 30 μM range for both α7B_M, and α7B_C, and experiments were repeated 4 times, both with the HBS buffer described above (containing 1 mM MgCl2) and with further addition of 2 mM CaCl2. Flow rate was set to 20 μl min−1 in all binding experiments, and the dissociation […]
Figure S1: DLS measurements of the SEC collected peaks. CIB2 band A2 (A), Rec (B) and CaM (C). Each data set consisted of 15-30 measurements (grey lines), with 13-15 repetitions each. Colored lines are referred to the average distribution. Temperature was set to 37°C and samples were equilibrated for 2 min before measurements.
Figure S2: Time-resolved proteolysis experiments. […]

Molecule | SPR interaction with CIB2 (human CIB2; His-CIB2 capture (7.5 µM peptide, or 230 nM–30 μM) and amine-coupled untagged CIB2 (7.5–30 µM), 1 mM Mg^2+, 2 mM Ca^2+, experiments repeated 4 times) | first-event affinity in Mg^2+ + Ca^2+ compared to Mg^2+ alone (human CIB2; KD^app1) | faster dissociation of the second CIB2 molecule in co-presence of Mg^2+ and Ca^2+ (human CIB2; Mg^2+ + Ca^2+ vs Mg^2+) | affinity for CIB2 (human CIB2; SPR) | ka2 association rate constant, CIB2-α7B_M-CIB2 complex (human CIB2; bivalent analyte model, 1 mM Mg^2+ 2 mM Ca^2+, pH 7.5, N = 15) | ka2 association rate constant, CIB2-α7B_M-CIB2 complex (human CIB2; bivalent analyte model, 1 mM Mg^2+, 230 nM–30 μM, pH 7.5, N = 16) | kon (human CIB2; bivalent analyte model, 1 mM Mg^2+, 20 mM HEPES pH 7.5, 150 mM KCl, 1 mM DTT, 50 µM EDTA, 0.005% Tween, N = 16) | association of first CIB2 faster in sole Mg^2+ vs co-presence of Ca^2+ (fold) (human CIB2; first binding event, Mg^2+ vs Mg^2+ + Ca^2+) | dissociation from CIB2 (human CIB2; followed for 240 s, flow rate 20 μl min−1) | koff (human CIB2; pH 7.5, bivalent analyte model, 1 mM Mg^2+ 2 mM Ca^2+, pH 7.5, N = 15, read-out: kd1 dissociation rate constant, CIB2-α7B_M complex) | koff (human CIB2; pH 7.5, bivalent analyte model, 1 mM Mg^2+ 2 mM Ca^2+, pH 7.5, N = 15, read-out: kd2 dissociation rate constant, CIB2-α7B_M-CIB2 complex) | koff (human CIB2; pH 7.5, bivalent analyte model, 1 mM Mg^2+, 230 nM–30 μM, pH 7.5, N = 16, read-out: kd1 dissociation rate constant, CIB2-α7B_M complex) | koff (human CIB2; pH 7.5, bivalent analyte model, 1 mM Mg^2+, 230 nM–30 μM, pH 7.5, N = 16, read-out: kd2 dissociation rate constant, CIB2-α7B_M-CIB2 complex) | kon (human CIB2; pH 7.5, bivalent analyte model, 1 mM Mg^2+ 2 mM Ca^2+, pH 7.5, N = 15) | Kd (human CIB2; 1 mM Mg^2+ 2 mM Ca^2+, pH 7.5, N = 15) | Kd (human CIB2; 1 mM Mg^2+, pH 7.5, N = 16) | association of second CIB2 faster in sole Mg^2+ vs co-presence of Ca^2+ (fold) (human CIB2; second binding event, Mg^2+ vs Mg^2+ + Ca^2+) | DLS Ø hydrodynamic diameter (Dynamic light scattering)
CSCC[C@H](NC(=O)[C@H](CCCCN)NC(=O)[C@H](Cc1c[nH]c2ccccc12)NC(=O)[C@H](CC(C)C)NC(=O)[C@H](CC(C)C)NC(=O)[C@H](CC(C)C)NC(C)=O)C(=O)NCC(=O)N[C@@H](Cc1ccccc1)C(=O)N[C@@H](Cc1ccccc1)C(=O)N[C@@H](CCCCN)C(=O)N[C@@H](CCCNC(=N)N)C(=O)N[C@@H](C)C(=O)N[C@@H](CCCCN)C(=O)N[C@@H](Cc1c[nH]cn1)C(=O)N1CCC[C@H]1C(=O)N[C@@H](CCC(=O)O)C(N)=O [α7B_M] (Ac-LLLWKMGFFKRAKHPE-NH2) | binds to CIB2 significantly stronger than the control peptide α7B_Scrb | roughly half affinity | 2.5 times | relatively low affinity interaction | (4.2 ± 0.5) × 10^−4 RU^−1s^−1 | (1.9 ± 0.4) × 10^−3 RU^−1s^−1 | 31000 M⁻¹ s⁻¹ | 2 fold | complete protein-peptide dissociation | 0.4 s⁻¹ | 0.053 s⁻¹ | 0.36 s⁻¹ | 0.02 s⁻¹ | 16000 M⁻¹ s⁻¹ | 25 ± 5 µM | 11.6 ± 1.8 µM | 5 fold | 
B1 |  |  |  |  |  |  |  |  |  |  |  |  |  |  |  |  |  | 5.4 ± 0.2 nm and 5.4 ± 0.2 [15] nm
